“And” between values parts separate entries of the source, which are not always exact repeats. Equal values may be shown once. Toxic doses and inconclusive results are not listed. Rule as the data show it: active = T/C of 150% or more; inactive = T/C below 125%.
Test system: L1210 leukemia ip in BDF1 mice, survival T/C
Assay: NCI In Vivo Anticancer Drug Screen. Data for tumor model L1210 Leukemia (intraperitoneal) in B6D2F1 (BDF1) mice
Conditions: endpoint: mean survival time, higher = longer survival
How it was run: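 Tumor was transplanted into mice, which were then dosed with test compound or vehicle alone. Survival was recorded for each group, and the treated figure was expressed relative to the control figure.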

[1] = dose: 100.0 mg/kg/injection, schedule: Q04DX002 (ip), vehicle: Klucel (hydroxypropylcellulose) (HPC)
[2] = dose: 200.0 mg/kg/injection, schedule: Q04DX002 (ip), vehicle: Klucel (hydroxypropylcellulose) (HPC)
[3] = dose: 400.0 mg/kg/injection, schedule: Q04DX002 (ip), vehicle: Klucel (hydroxypropylcellulose) (HPC)
[4] = dose: 100.0 mg/kg/injection, schedule: Q01DX009 (ip), vehicle: Klucel (hydroxypropylcellulose) (HPC)
[5] = dose: 200.0 mg/kg/injection, schedule: Q01DX009 (ip), vehicle: Klucel (hydroxypropylcellulose) (HPC)
[6] = dose: 100.0 mg/kg/injection, schedule: Q01DX001 (ip), vehicle: saline
[7] = dose: 400.0 mg/kg/injection, schedule: Q01DX009 (ip), vehicle: Klucel (hydroxypropylcellulose) (HPC)
[8] = dose: 100.0 mg/kg/injection, schedule: Q01DX009 (ip), vehicle: saline with Tween-80
[9] = dose: 100.0 mg/kg/injection, schedule: Q04DX003 (ip), vehicle: saline with Tween-80
[10] = dose: 200.0 mg/kg/injection, schedule: Q01DX009 (ip), vehicle: saline with Tween-80
[11] = dose: 200.0 mg/kg/injection, schedule: Q04DX003 (ip), vehicle: saline with Tween-80
[12] = dose: 400.0 mg/kg/injection, schedule: Q04DX003 (ip), vehicle: saline with Tween-80
[13] = dose: 200.0 mg/kg/injection, schedule: Q01DX001 (ip), vehicle: saline
[14] = dose: 400.0 mg/kg/injection, schedule: Q01DX001 (ip), vehicle: saline
[15] = dose: 400.0 mg/kg/injection, schedule: Q01DX009 (ip), vehicle: saline with Tween-80
[16] = dose: 100.0 mg/kg/injection, schedule: Q04DX003 (ip), vehicle: Klucel (hydroxypropylcellulose) (HPC)
[17] = dose: 200.0 mg/kg/injection, schedule: Q04DX003 (ip), vehicle: Klucel (hydroxypropylcellulose) (HPC)

Measured: T/C

CN(Cc1ccccc1)C(=O)C(Cl)Cl
inactive: [1] 103 % of control | [2] 117 % of control | [3] 109 % of control

O=C(O)c1cccnc1C(=O)O.[Cu+2]
inactive: dose: 3.12 mg/kg/injection, schedule: Q01DX009 (ip), vehicle: Klucel (hydroxypropylcellulose) (HPC) 107 % of control | dose: 6.25 mg/kg/injection, schedule: Q01DX009 (ip), vehicle: Klucel (hydroxypropylcellulose) (HPC) 94 % of control | dose: 6.25 mg/kg/injection, schedule: Q04DX003 (ip), vehicle: Klucel (hydroxypropylcellulose) (HPC) 94 % of control and 95 % of control | dose: 12.5 mg/kg/injection, schedule: Q01DX001 (ip), vehicle: other 108 % of control | dose: 12.5 mg/kg/injection, schedule: Q01DX009 (ip), vehicle: Klucel (hydroxypropylcellulose) (HPC) 92 % of control | dose: 12.5 mg/kg/injection, schedule: Q04DX003 (ip), vehicle: Klucel (hydroxypropylcellulose) (HPC) 101 % of control and 97 % of control | dose: 25.0 mg/kg/injection, schedule: Q01DX001 (ip), vehicle: other 89 % of control | dose: 25.0 mg/kg/injection, schedule: Q04DX003 (ip), vehicle: Klucel (hydroxypropylcellulose) (HPC) 95 % of control

Cc1cccc(NC(=S)/C(=C(/[O-])c2ccccc2)[n+]2ccc3ccccc3c2)c1
inactive: dose: 100.0 mg/kg/injection, schedule: Q04DX002 (ip), vehicle: saline with Tween-80 98 % of control | dose: 200.0 mg/kg/injection, schedule: Q04DX002 (ip), vehicle: saline with Tween-80 98 % of control | dose: 400.0 mg/kg/injection, schedule: Q04DX002 (ip), vehicle: saline with Tween-80 91 % of control

Cc1[nH]c2ccccc2c1C
inactive: [4] 104 % of control | [5] 87 % of control

CC(=O)NN
inactive: [6] 104 % of control

O=C(Nc1ccccc1Cl)OCCOc1ccccc1
inactive: [4] 97 % of control | [5] 97 % of control | [7] 94 % of control

O=C(Nc1ccccc1)C(Cl)S(=O)(=O)O (stereo not given)
inactive: dose: 100.0 mg/kg/injection, schedule: Q01DX001 (ip), vehicle: saline with Tween-80 97 % of control | dose: 200.0 mg/kg/injection, schedule: Q01DX001 (ip), vehicle: saline with Tween-80 97 % of control

N#CCCCCSC12CC3CC(CC(C3)C1)C2
inactive: [1] 115 % of control | [2] 108 % of control | [3] 89 % of control

COC(=O)C(Cc1c[nH]c2ccccc12)NC(=O)CNC(=O)OCc1ccccc1 (stereo not given)
inactive: dose: 100.0 mg/kg/injection, schedule: Q04DX003 (ip), vehicle: other 98 % of control | dose: 200.0 mg/kg/injection, schedule: Q04DX003 (ip), vehicle: other 102 % of control | dose: 400.0 mg/kg/injection, schedule: Q04DX003 (ip), vehicle: other 98 % of control

O=C1Nc2ccccc2Cc2ccccc21
inactive: [8] 93 % of control | [9] 102 % of control | [10] 92 % of control | [11] 102 % of control | [12] 107 % of control

NC(N)(C(F)(F)F)C(F)(F)F
inactive: [6] 101 % of control | [13] 102 % of control | [14] 98 % of control

CCC(N)C(=O)O (stereo not given)
inactive: [6] 108 % of control | [13] 102 % of control | [14] 94 % of control

BrCC1CCCO1 (stereo not given)
inactive: dose: 25.0 mg/kg/injection, schedule: Q01DX009 (ip), vehicle: saline with Tween-80 106 % of control | dose: 25.0 mg/kg/injection, schedule: Q04DX003 (ip), vehicle: saline with Tween-80 102 % of control | dose: 50.0 mg/kg/injection, schedule: Q01DX009 (ip), vehicle: saline with Tween-80 90 % of control | dose: 50.0 mg/kg/injection, schedule: Q04DX003 (ip), vehicle: saline with Tween-80 101 % of control | [8] 89 % of control | [9] 101 % of control

CC(=O)Nc1ccc(N=Cc2ccc([N+](=O)[O-])s2)cc1
inactive: [9] 100 % of control | [11] 96 % of control | [12] 98 % of control

Oc1c(Br)cc(Br)cc1/C=N/c1nc(-c2ccccc2)cs1.Oc1c(Br)cc(Br)cc1/C=N/c1nc(-c2ccccc2)cs1.[Co]
inactive: [6] 93 % of control | [14] 86 % of control

CCCCCCCCc1nc2c([nH]1)c(=O)n(C)c(=O)n2C
inactive: dose: 50.0 mg/kg/injection, schedule: Q01DX001 (ip), vehicle: saline 87 % of control | [6] 90 % of control | [13] 90 % of control | [14] 102 % of control

CCOC(=O)CCCC(=O)N(CC(=O)OCC)Cc1ccccc1
inactive: [9] 102 % of control | [11] 93 % of control | [12] 90 % of control

CC(=O)COc1ccc(Cl)cc1Cl
inactive: [8] 98 % of control | [10] 97 % of control | [15] 92 % of control

COc1ccccc1C=O
inactive: [4] 90 % of control | [5] 90 % of control | [7] 106 % of control

N#CC(C#N)=Cc1cccc2ccccc12
inactive: dose: 50.0 mg/kg/injection, schedule: Q01DX009 (ip), vehicle: Klucel (hydroxypropylcellulose) (HPC) 97 % of control and 91 % of control | [4] 95 % of control and 103 % of control | [16] 102 % of control | [5] 96 % of control and 105 % of control | [17] 97 % of control | dose: 400.0 mg/kg/injection, schedule: Q04DX003 (ip), vehicle: Klucel (hydroxypropylcellulose) (HPC) 103 % of control

CC1(C)OC2(C)OC1(C)OC2(C)C
inactive: dose: 75.0 mg/kg/injection, schedule: Q01DX009 (ip), vehicle: carboxymethylcellulose (CMC) 100 % of control | dose: 150.0 mg/kg/injection, schedule: Q01DX009 (ip), vehicle: carboxymethylcellulose (CMC) 103 % of control | dose: 300.0 mg/kg/injection, schedule: Q01DX009 (ip), vehicle: carboxymethylcellulose (CMC) 105 % of control

O=c1[nH]c(=O)c2nc3ccccc3nc2[nH]1
inactive: [4] 100 % of control | [5] 94 % of control | [7] 93 % of control

O=C(C[n+]1ccccc1CO)c1ccc(-c2ccc(C(=O)C[n+]3ccccc3CO)cc2)cc1
inactive: dose: 0.15 mg/kg/injection, schedule: Q04DX003 (ip), vehicle: saline 97 % of control | dose: 0.3 mg/kg/injection, schedule: Q04DX003 (ip), vehicle: saline 96 % of control | dose: 0.6 mg/kg/injection, schedule: Q04DX003 (ip), vehicle: saline 100 % of control

Cc1ccc(S(=O)(=O)OCC(OS(=O)(=O)c2ccc(C)cc2)C2OCOC(COS(=O)(=O)c3ccc(C)cc3)C2OS(=O)(=O)c2ccc(C)cc2)cc1 (stereo not given)
inactive: [9] 94 % of control | [11] 87 % of control | [12] 100 % of control

N#C/C(=C\c1cc(Cl)cc(Cl)c1O)C(/C(C#N)=C/c1cc(Cl)cc(Cl)c1O)c1ccc2c(c1)OCO2 (stereo not given)
inactive: [8] 97 % of control | dose: 100.0 mg/kg/injection, schedule: Q04DX003 (ip), vehicle: saline 98 % of control | [10] 94 % of control | [11] 103 % of control | dose: 200.0 mg/kg/injection, schedule: Q04DX003 (ip), vehicle: saline 100 % of control | [15] 89 % of control | dose: 400.0 mg/kg/injection, schedule: Q04DX003 (ip), vehicle: saline 98 % of control

CCCCCCCCCCCC(=O)NC(=S)Nc1cccc2ccccc12
inactive: [16] 90 % of control | [17] 97 % of control

Source: PubChem BioAssay AID248 (DTP/NCI, 2004)
